We go through 6 substances from patent publication US5039792A, “Allatostatins which inhibit insect juvenile hormone biosynthesis” (Oregon State University, priority 1989, dated 1991).

Ends that are not written are not given here.

The test concerns juvenile hormone III synthesis by corpora allata. The test can be described thus: in vitro radiochemical assay for inhibition of juvenile hormone III synthesis and release by corpora allata. Conditions: for IC50: inhibition of juvenile hormone synthesis and release, two hour in vitro radiochemical assay, corpora allata from ten day old pregnant females, read-out: Bioactivity as I.C.50 (Day 10 Donors). Type of test: cell-based, Diploptera punctata. As to the method: This assay for inhibition of JH synthesis is conducted as described by G. E. Pratt and J. R. Finney, in Crop Protection Agents: their biological evaluation, N. R. McFarlane, Ed. (Academic Press, New York, 1976)) except it is modified by the use of rapid partition instead of thin layer chromatography to isolate the newly synthesized JH and also modified by a reduction of incubation time to two hours.
Biological activities are determined for all RP18.cndot.HPLC fractions. […] Juvenile hormone III is synthesized de novo from acetyl-CoA through the classical isoprenoid pathway to farnesyl pyrophosphate (D. A. Schooley and F. C. Baker, in Comprehensive Insect Physiology, Biochemistry and Pharmacology, G. A. Kerkut and L. I. Gilbert, Eds. (Pergamon, Oxford, 1985) Vol. 7, pp. 363-389) and the enzymatic conversion of […] to JH can be stimulated in vitro by exogenous 2E,6E […] (Aldrich, Milwaukee, Wis.) which presumably alleviates a limitation in the biosynthetic flux (R. Feyereisen, J. Koener, S. S. Tobe, in Juvenile Hormone Biochemistry, G. E. Pratt and G. T. Brooks, Eds. (Elsevier, Amsterdam, 1981), pp. 81-92). […] The target of this allatostatin is therefore located early in the biosynthetic pathway. Juvenile hormone synthesis is determined at the end of two hours in these assays and bioactivity is measured as the ability of the peptide to inhibit biosynthesis of the JHIII. The peptide yields as determined from sequence analysis correspond to approximately 35 fmole/brain-complex. This is approximately one third the yield of the smaller known allatostatins (see G. E. Pratt et al. Biochem. & Biophys. Res. Commun. 163:1243 (1989) and A. P. Woodhead et al. Prod. Natl. Acad. Sci. 86:5997 (1989).
The inhibition of JH III synthesis and release by corpora allata (CA) from ten day old pregnant females is measured by an in vitro radiochemical assay. The three hour assay for inhibitors of JH synthesis (G. E. Pratt and J. R. Finney, in Crop Protection Agents: their biological evaluation, N. R. McFarlane, Ed. (Academic Press, New York, 1976) pp. 113-132) is modified by the use of rapid partition instead of thin layer chromatography to isolate the newly synthesized JH III (R. Feyereisen and S. S. Tobe, Anal. Biochem. 111: 372 (1981)) and modified by a reduction of incubation time to two hours. In each assay, run in seven replicates, one pair of CA was incubated with 50 μM (methyl-^3 H) methionine and putative inhibitor in 0.1 mL of TC199 containing 2% Ficoll, 0.1% bovine serum albumin and 0.03% bacitracin. The test glands show maximum sensitivity to the allatostatic action of brain extracts. R. Feyereisen and D. E. Farnsworth, Insect Biochem. 17,939 (1987); S. M. Rankin and B. Stay, J. Insec. Physiol. 33, 551 (1987).

With “Ac-AYSYVSEYKRLPVYNFGL-NH2 [acetyl-AYSYVSEYKRLPVYNFGL-NH2]”, the IC50 stood at 1.5 nM.
For the substance LPVYNFGL-NH2 [LPVYNFGL-NH2], the IC50 is 50 nM.
In the case of Ac-RLPVYNFGL-NH2 [acetyl-RLPVYNFGL-NH2], the IC50 came out at 30 nM.
In the case of “AYSYVSEYKRLPVYNFGL-NH2 [AYSYVSEYKRLPVYNFGL-NH2]”, the IC50 is 0.3 nM. In addition, the “inhibition of JH III biosynthesis in dose-response assays in the presence of farnesol” value (in the presence of 200 μM farnesol, JH synthesis determined at the end of two hours) is listed as “totally ineffective”. Further, the “biological activity in the in vitro assay (inhibition of JH synthesis)” value (in vitro radiochemical assay, corpora allata) is reported as “biologically active”.
Consider RLPVYNFGL-NH2 [RLPVYNFGL-NH2], for which the IC50 is 270 nM.
Turning to LRVYNFGL-NH2 [LRVYNFGL-NH2], the IC50 is 118 nM.
